Assay results taken from patent publication US8999969B2, “Anti-RSV compounds” (Gilead Sciences, Inc., priority 2009, dated 2015).

System: RSV strain A2
Test: in vitro cytoprotection assay against RSV in Hep2 cells
Format: cell-based
Details: human respiratory syncytial virus, HEp-2, 96 h; 1 uM compound; RSV-induced cytopathic effect in Hep2 cells, 4 days, Cell TiterGlo; read-out: RSV % inh. @ 1 uM
Protocol: Antiviral activity against RSV was determined using an in vitro cytoprotection assay in Hep2 cells. […] The method used is similar to methods previously described in Chapman J et al., “RSV604 a novel inhibitor of respiratory syncytial virus replication,” Antimicrob Agents Chemother, 51(9):3346-53 (2007).
Hep2 cells were obtained from ATCC (Manassas, Va.) and maintained in MEM media supplemented with 10% fetal bovine serum and penicillin/streptomycin. Cells were passaged twice a week and kept at subconfluent stage. Commercial stock of RSV strain A2 (Advanced Biotechnologies, Columbia, Md.) was titered before compound testing to determine the appropriate dilution of the virus stock that generates desirable cytopathic effect in Hep2 cells.
For antiviral tests, Hep2 cells were seeded into 96-well plates 24 hours before the assay at a density of 3,000 cells/well. On a separate 96well plate, tested compounds were serially diluted in cell culture media. Eight concentrations in 3-fold serial dilution increments were prepared for each tested compound and 100 uL/well of each dilution was transferred in duplicate onto plates with seeded Hep2 cells. Subsequently, appropriate dilution of virus stock previously determined by titration was prepared in cell culture media and 100 uL/well was added to test plates containing cells and serially diluted compounds. Each plate included three wells of infected untreated cells and three wells of uninfected cells that served as 0% and 100% virus inhibition control, respectively. Following the infection with RSV, testing plates were incubated for 4 days in a tissue culture incubator. After the incubation, RSV-induced cytopathic effect was determined using a Cell TiterGlo reagent (Promega, Madison, Wis.) followed by a luminescence read-out. The percentage inhibition was calculated for each tested concentration relative to the 0% and 100% inhibition controls and the EC50 value for each compound was determined by non-linear regression as a concentration inhibiting the RSV-induced cytopathic effect by 50%. Ribavirin (purchased from Sigma, St. Louis, Mo.) was used as a positive control for antiviral activity.

SMILES	inhibition at 1 µM [%]
Cc1cc(C(=O)Nc2ccc(C(=O)N3CCc4cc(C(=O)NC5CC5)sc4-c4ccccc43)cc2)c(N2CCCC2)nn1 [Example 65]	95
Cc1cc(C(=O)Nc2ccc(C(=O)N3CCc4cc(C(=O)NC5CC5)sc4-c4ccccc43)cc2)c(N2CC(F)(F)C2)nn1 [Example 67]	98
